One assay deals with MDCK kidney cell line. The experiment in a line: growth response of MDCK cells. It is filed as cell-based, dog.
In assay [1] the test system is NRK (normal rat kidney) cells. Nature of the assay: tritium labeled thymidine incorporation of low and high passage NRK cells, with and without EGF. It is filed as cell-based. Particulars: low passage NRK cells, serum free medium. An excerpt: (§1) Further exploration of this point was done with the cell line designated NRK (normal rat kidney). When used at a low passage number these cells behave as a normal, non-tumorigenic line, as evidenced by their low rates of colony formation in soft agar. This growth pattern facilitated wide spread use of the NRK cells as bioassay targets for alpha- and beta-transforming growth factors. The bioassay of transforming growth factors by soft agar colony formation was shown by others to require the additon of epidermal growth factor (EGF). At higher passage numbers, these cells progressively increase their capacity to form colonies in soft agar without requiring the presence of growth factor supplements to the usual serum containing medium. Using these properties, we have asked whether low and high passage NRK cells responded to KDGF both with and without added EGF. These experiments were conducted in serum free medium, since the presence of even low concentrations (i.e. 1%, vol/vol) of serum inhibited KDGF action. […] Thus with the relatively non-tumorigenic pheno-type NRK cells, KDGF and EGF were synergistic when cells were in sparse culture. […] In a final experiment, the growth promoting effects of EGF and/or KDGF were compared on LLCK-PK1 pig kidney cells. […] EGF alone was mitogenic for LLCK-PK1 cells, whereas KDGF was not. […]
Background: Incorporation of labelled thymidine or its analogues reports DNA synthesis.

The test system of assay [2] is LLCK-PK1 pig kidney cells. The experiment in a line: growth promoting effects of EGF and/or KDGF on LLCK-PK1 cells. It is filed as cell-based.
Description: as §1

The results in this text go back to patent US4670539A, “Peptide growth factors derived from estrogen responsive kidney tissue” (Board of Regents, The University of Texas, priority 1984, dated 1987).

Turning to epidermal growth factor [EGF], the growth response entry with MDCK kidney cell line is on record as “responded”. Besides, in assay [1] (confluent cultures), the “growth (tritium labeled thymidine incorporation), factor alone” value is given as “Neither KDGF alone nor EGF alone promoted growth”. In assay [1] (non-confluent cultures), the “mitogenic response, factor alone” value is “limited mitogenic responses”. In assay [2], the “mitogenic activity, factor alone” value was “mitogenic”.
